In PMC6133092, “Synthesis of 2-alkylthio-N-(quinazolin-2-yl)benzenesulfonamide derivatives: anticancer activity, QSAR studies, and metabolic stability” (Monatshefte Fur Chemie, 2018):

Legend:
Assay type in all cases: cell-based
NCI-H522 = assay: NCI-60 single dose screen, NCI-H522; conditions: Homo sapiens, NSCLC, single concentration 10^−5 M, read-out: IGP (inhibition growth percent) NCI-H522
Experimental: (§1) Aside from above, compounds 9–14 and 17–24 were also submitted to National Cancer Institute and evaluated for the cytotoxic effects toward 60 cell lines at a single dose of 10 μM (Table 2). […] As it was summarized in Table 2, leukemia RPMI-8226 and NSCLC A549/ATCC were most sensitive to compounds 18, 22, and 24. These derivatives in 10 μM concentration inhibited the growth of approximately 50% cells belonging to the above mention cell lines.
(§2) Cytotoxicity evaluation of compounds 9–14 and 17–24 was performed at the National Cancer Institute according to NCI-60 DTP human tumor cell line screen procedure.

HaCaT = assay: Cytotoxic effect against non-carcinogenic cell line HaCaT; conditions: for IC50: Homo sapiens, HaCaT, non-carcinogenic cell line, mean ± SD; for activity against HCT-116 fold higher compared with HaCaT: selectivity HCT-116 vs HaCaT; for inhibition of growth of HaCaT cells fold weaker than HeLa cells: selectivity HeLa vs HaCaT
Experimental: For the compounds with the strongest cytotoxicity (12, 18, 22, and 24), an investigation of cytotoxic effect against non-carcinogenic cell line HaCaT was done. […] The activity against HCT-116 was 1.7-, 1.6-, 1.5-, and 1.4-fold higher when compared with HaCaT cell line, for compounds 12, 18, 22, and 24, respectively.
(§3) Cell viability was determined using the MTT (3-(4,5-dimethylthiazol-2-yl)-2,5-diphenyltetrazolium bromide) assay. Cells were seeded in 96-well plates at a density of 5 × 10^3 cells/well and treated for 72 h with the examined compounds in the concentration range 1–100 μM (1, 10, 25, 50, and 100 μM). Following treatment, MTT (0.5 mg/cm^3) was added to the medium and cells were further incubated for 2 h at 37 °C. Cells were lysed with DMSO and the absorbance of the formazan solution was measured at 550 nm with a plate reader (Victor, 1420 multilabel counter). […] The experiment was performed in triplicate. Values are expressed as the mean ± SD of at least three independent experiments.

SR = assay: NCI-60 single dose screen, SR; conditions: Homo sapiens, Leukemia, single concentration 10^−5 M, read-out: IGP (inhibition growth percent) SR
Experimental: as §1, §2

UACC-62 = assay: NCI-60 single dose screen, UACC-62; conditions: Homo sapiens, Melanoma, single concentration 10^−5 M, read-out: IGP (inhibition growth percent) UACC-62
Experimental: as §1, §2

HCT-116 (colon cancer) = assay: MTT cell viability assay, HCT-116; conditions: Homo sapiens, 72 h, mean ± SD
Experimental: (§4) All chemicals, if not stated otherwise, were obtained from Sigma-Aldrich (St. Louis, MO, USA). The MCF-7 and HeLa cell lines were purchased from Cell Lines Services (Eppelheim, Germany), the HCT-116 cell line was purchased from ATCC (ATCC-No: CCL-247). Cells were cultured in Dulbecco’s modified Eagle’s medium (DMEM) supplemented with 10% fetal bovine serum, 2 mM glutamine, 100 units/cm^3 penicillin, and 100 μg/cm^3 streptomycin. Cultures were maintained in a humidified atmosphere with 5% CO2 at 37 °C in an incubator (Heraceus, HeraCell).
as §3

EKVX = assay: NCI-60 single dose screen, EKVX; conditions: Homo sapiens, NSCLC, single concentration 10^−5 M, read-out: IGP (inhibition growth percent) EKVX
Experimental: as §1, §2

HeLa (cervical cancer) = assay: MTT cell viability assay, HeLa; conditions: Homo sapiens
Experimental: as §4, §3

UO-31 = assay: NCI-60 single dose screen, UO-31; conditions: Homo sapiens, Renal cancer, single concentration 10^−5 M, read-out: IGP (inhibition growth percent) UO-31
Experimental: as §1, §2

[1] = Table 4, repeats Table 1 values without SD and unit

Row | IC50 (HCT-116 (colon cancer)) [µM] | IC50 (HeLa (cervical cancer); MTT, 72 h, mean ± SD) [µM] | IC50 (HeLa (cervical cancer); [1]) [µM] | Structure (SMILES) | inhibition at 10 µM (NCI-H522) [%] | IC50 (HaCaT) [µM] | activity against HCT-116 fold higher compared with HaCaT (HaCaT) [fold] | inhibition of growth of HaCaT cells fold weaker than HeLa cells (HaCaT) [fold] | inhibition at 10 µM (SR) [%] | inhibition at 10 µM (UACC-62) [%] | inhibition at 10 µM (EKVX) [%] | inhibition at 10 µM (UO-31) [%]
1 | 42 ± 1 | 46 ± 2 | 46 | O=C(Nc1ccccc1)c1cc(S(=O)(=O)Nc2nc(-c3ccccc3)c3ccccc3n2)c(SCc2ccccc2)cc1Cl [Compound 18, 2-Benzylthio-4-chloro-5-phenylcarbamoyl-N-(4-phenylquinazolin-2-yl)benzenesulfonamide] | 25 | 68 ± 2 | 1.6 | 1.5 | 28 | 39 | 35 | 3
2 | 41 ± 1 | 44 ± 3 | – | Cc1ccc(NC(=O)c2cc(S(=O)(=O)Nc3nc(-c4ccccc4)c4ccccc4n3)c(SCc3ccccc3)cc2Cl)cc1 [Compound 24, 2-Benzylthio-4-chloro-5-(4-methylphenylcarbamoyl)-N-(4-phenylquinazolin-2-yl)benzenesulfonamide] | 28 | 58 ± 1 | 1.4 | 1.3 | 23 | 28 | 45 | 25
3 | 39 ± 1 | 42 ± 0.5 | 42 | O=C(Nc1ccc(Cl)cc1)c1cc(S(=O)(=O)Nc2nc(-c3ccccc3)c3ccccc3n2)c(SCc2ccccc2)cc1Cl [Compound 22, 2-Benzylthio-4-chloro-5-(4-chlorophenylcarbamoyl)-N-(4-phenylquinazolin-2-yl)benzenesulfonamide] | 35 | 59 ± 1 | 1.5 | 1.4 | 40 | 40 | 28 | 35
